This experiment concerns burn wounds. The experiment is described as follows: Pig burn wound model. The class given is in vivo. The note with it: for re-epithelialization / healing rate versus vehicle: after post-burn day 10; for scarring versus vehicle-only control wounds: post-burn day 35 (and 41). How it is done:
Preparation of IntraSite® gel containing TGF-β peptantagonist (peptide TGF-beta antagonist). 1 ml of sterile 6 mM peptide β1^25 (41-65) in phosphate buffered saline or 1 ml of sterile phosphate buffered saline was vigorously mixed with 3 ml of IntraSite® gel using two 10 ml syringes connected with a three-way connector. […] However, 1.5 mM of peptide β1^25 (41-65) was used throughout the experiments described below.
Burn wound model. Four pigs weighing 20-25 kg were anesthetized by intramuscular injection of ketamine (5 mg/kg), strenil® (cazaporonum) (20 mg/kg) and atropine (5 mg/kg). Six uniform burn wounds (110° C., 30 sec) were then made symmetrically on the back of each pig using a modified soldering iron (Ref. 15) with a flat contact area of 20 cm^2. […] After wounding, a thin layer of Intrasite®) gel containing either peptide β1^25 (41-65), buffer or nothing else was applied to the wounds. All wounds were dressed with paraffin gauze. The dressing was changed every two days for the first 10 days and twice a week for the next 30 days. Gel comprising peptide β1^25 (41-65) and control gel were applied and wound measurements were made at each dressing change.
Assessment of wound healing. Wound healing was assessed by evaluating the rates of wound re-epithelization and contraction. The open wound area and the area enclosed by the normal hair bearing skin were measured using the macrophotography technique (Ref. 14). The healing rate was monitored every two days for the first 10 days and twice a week for 30 more days. Wound reepithelialization as a percent of the original wound size was calculated using the following formula:
[formula] where E=rate of re-epithelialization in percent; An=area enclosed by the normal hair bearing skin on a given post-burn day; Ao=area of open wound on the same day as was measured. Wound contraction was calculated using the following formula:
[formula] where C=rate of wound contraction in percent; Al=wound area as measured immediately following the burn or excision injury; An=area enclosed by normal hair bearing skin.
Measurement of scar. The volumes of scar tissue were estimated by multiplying their thickness by the size of the scar on post-burn day 41 in pigs and post-excision day 10 in rabbits.

Setting [1] is: 1.5 mM in gel, topical, listed as TGF-β peptantagonist.

Experimental findings from patent publication US7723473B2, “Peptide antagonists of TGF-beta family members and therapeutic uses thereof” (St. Louis University, priority 1997, dated 2010) are described below.

With “ANFCLGPCPYIWSLDTQYSKVLALY [peptide β1^25 (41-65)]”, the “scarring versus vehicle-only control wounds” value was “less scarring”. Also, under “1.5 mM in gel, topical”, the “wound contraction versus vehicle only” value is “less contraction” and the “re-epithelialization / healing rate versus vehicle” value is “rapid re-epithelialization”. For the same sequence, under setting [1], the “re-epithelialization / healing rate versus vehicle” value is listed as “healed faster” and the “wound contraction versus vehicle only” value is listed as “contracted significantly”. The sequence further returned a re-epithelialization complete (1.5 mM in gel, topical, n=4) of 26±2 post-burn day. Moreover, the “accelerating wound healing and reducing scarring” value (0.75 and 1.5 mM peptide in gel, topical) was “effective”. Also, the open wound entry (post-burn day 23) is “very little open wound”. The same sequence gave a wound contraction (post-burn day 33, 1.5 mM in gel, n=4) of 50±4%. For the same sequence, under “post-burn day 34”, the open wound entry is reported as “very little open wound”. Further, the “scarring versus vehicle-only control wounds” value (listed as TGF-β peptantagonist) was “less scar formation”. Further, the “volume of scar tissue” value (post-burn day 41) was 0.07±0.02 cm^3.
